Tests used:
MESSA cells = test: Cytotoxicity assay (PrestoBlue cell viability), MESSA; type: cell-based; settings: Homo sapiens, MES-SA; 48 hours treatment; concentration inducing 50% cell mortality
Procedure: (§1) Messa, Messa DX5, HCT116, HEK-293, PC-3, LNCaP, HCC827 and H1975 cell lines are issued from the American Type Culture Collection (ATCC).
(§2) Messa, Messa DX5 and HCT116 were maintained in McCoy's supplemented with 10% fetal bovine serum, and 1% penicillin/streptomycin. PC-3, LNCaP cells were maintained in RPMI medium supplemented with 10% fetal bovine serum, and 1% penicilin/streptomycin and in the case of Messa DX5: 500 nM Doxorubicin was added to maintain selection pressure. HEK293 were maintained in DMEM medium supplemented with 10% fetal bovine serum, and 1% penicillin/streptomycin. Cells were maintained at 37° C. with 5% CO2, 95% air, and humid atmosphere. In the case of hormonal dependent LNCaP cells, 2 μM DiHydroTestosterone (DHT) was added or not—depending on the type of biological assay—for the same incubation period as compounds.
(§3) For cytotoxicity assays, cells were seeded in 96-well microplates 24 hours before the addition of increasing concentrations of each compound in the culture medium. Cell viability was analyzed 48 hours following addition of each compound through the monitoring of mitochondrial […] activity using PrestoBlue® Cell Viability Reagent (Invitrogen; #A-13261). Paclitaxel was used as a control which is cytotoxic on various cancerous cells although not on chemoresistant MESSA DX5 lineage.

MESSA DX5 cells = test: Cytotoxicity assay (PrestoBlue cell viability), MESSA DX5; type: cell-based, human
Procedure: as §1, §2, §3

[1] = biological target: T1, USP8^CD (purified catalytic domain of USP8) (Homo sapiens, UniProt P40818); test: Inhibition of purified USP8^CD enzymatic activity (Ub-AMC or Ub-Rho substrate); type: biochemical; settings: Ub-AMC at 1 μM, Table 1a; for inhibition at 1 µM: 1 μM compound
T1 construct: the purified catalytic domain of USP8 (USP8^CD, in-house purified); made in house; host or cells: E. coli BL21 Gold
T1 sequence (P40818 777-1109 limits assumed): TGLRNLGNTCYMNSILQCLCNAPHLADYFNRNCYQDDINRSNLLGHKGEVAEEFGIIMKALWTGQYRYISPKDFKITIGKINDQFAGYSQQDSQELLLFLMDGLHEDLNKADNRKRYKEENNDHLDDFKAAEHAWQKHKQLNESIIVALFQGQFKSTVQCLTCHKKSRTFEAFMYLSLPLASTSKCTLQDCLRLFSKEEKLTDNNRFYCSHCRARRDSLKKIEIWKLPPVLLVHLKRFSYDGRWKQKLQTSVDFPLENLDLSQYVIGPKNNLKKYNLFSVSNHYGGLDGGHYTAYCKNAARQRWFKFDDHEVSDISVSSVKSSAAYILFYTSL
Procedure: USP2CD or USP8CD were expressed in E. coli BL21 Gold. Cells were grown in LB Miller to mid-log phase and induced by addition of 0.5 mM IPTG for USP2CD for 5 h at 20° C., while 1 mM IPTG was added for USP8CD for 3 h at 37° C. Then, cells were harvested and frozen at −80° C.
For His-tagged USP8CD, cells were resuspended in buffer A (50 mM TRIS pH 8.0, 500 mM NaCl, 2 mM Imidazole) and lysed using a sonicator. The lysate was clarified by centrifugation and applied to Ni Sepharose6 Fast Flow resin (GE Healthcare). The resin was sequentially washed first with buffer A containing 10 mM Imidazole then with buffer A containing 20 mM Imidazole, and finally with buffer A containing 50 mM Imidazole. Protein sample was eluted from the resin using buffer A containing 300 mM Imidazole. The eluted protein was buffer exchanged by gel-filtration on a Superdex 200 10/300 GL column (GE Healthcare) equilibrated in Buffer B (20 mM HEPES pH 7.5, 300 mM NaCl, 2 mM dithiothreitol (DTT)).
(§4) Enzymatic assay was performed in a HEPES buffer (50 mM pH7.6 1 mM DTT, 2% glycerol, 0.5 mM EDTA) or in a Tris buffer (40 mM pH7.4 1 mM DTT, 5% glycerol, 0.05 mg/ml BSA) respectively, following manufacturer's instructions. Compounds were added to the reaction mixture just prior to the substrate. The enzymatic reaction kinetics was monitored through the apparition of fluorescence due to the hydrolysis of the peptidyl Ub-AMC or Ub-Rho bound over 20 or 30 minutes.
Medium value out of duplicates is reported.

[2] = biological target: T2, USP2 full length (USP2^FL) (Homo sapiens, UniProt O75604); test: Inhibition of Ub-AMC hydrolysis by USP2 full length; type: biochemical; settings: Ub-AMC at 1 μM, Table 1a; for inhibition at 1 µM: 1 μM compound; for inhibition at 5 µM: 5 μM compound; for inhibition at 25 µM: 25 μM compound; for inhibition at 50 µM: 50 μM compound
T2 construct: purchased BioSciences 80352
T2 sequence (O75604 1-605): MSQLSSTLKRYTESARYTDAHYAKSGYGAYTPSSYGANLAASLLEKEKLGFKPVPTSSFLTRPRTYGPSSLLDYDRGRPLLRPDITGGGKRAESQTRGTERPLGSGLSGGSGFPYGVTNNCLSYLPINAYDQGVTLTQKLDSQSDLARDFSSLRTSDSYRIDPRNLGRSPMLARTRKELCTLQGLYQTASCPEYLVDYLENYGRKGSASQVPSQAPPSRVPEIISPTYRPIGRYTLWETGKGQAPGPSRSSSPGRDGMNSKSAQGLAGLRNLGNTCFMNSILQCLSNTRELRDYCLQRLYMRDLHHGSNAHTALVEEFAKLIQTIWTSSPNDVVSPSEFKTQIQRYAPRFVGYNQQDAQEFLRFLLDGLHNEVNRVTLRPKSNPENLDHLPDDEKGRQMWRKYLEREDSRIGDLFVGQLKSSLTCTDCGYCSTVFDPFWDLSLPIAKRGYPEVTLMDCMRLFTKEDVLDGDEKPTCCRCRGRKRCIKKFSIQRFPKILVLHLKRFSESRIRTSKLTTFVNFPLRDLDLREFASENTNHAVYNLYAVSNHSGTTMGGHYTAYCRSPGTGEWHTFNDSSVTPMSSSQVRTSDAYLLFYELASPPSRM
Procedure: as §4

USP8^CD % inhibition ([1]; 0.1 μM compound) | USP8^CD % inhibition ([1]; 0.5 μM compound) | inhibition at 1 µM [1] | USP8^CD % inhibition ([1]; 5 μM compound) | USP8^CD % inhibition ([1]; 25 μM compound) | USP8^CD % inhibition ([1]; 50 μM compound) | inhibition at 1 µM [2] | inhibition at 5 µM [2] | inhibition at 25 µM [2] | inhibition at 50 µM [2] | Structure (SMILES) | EC50 (MESSA cells) | EC50 (MESSA DX5 cells; Homo sapiens, MES-SA/Dx5, 48 hours treatment, chemoresistant line) | MESSA-DX5 cells death (MESSA DX5 cells; high concentration (100 μM))
– | – | – | – | – | – | – | – | – | – | CC(=O)O[C@H]1C(=O)[C@@]2(C)[C@H]([C@H](OC(=O)c3ccccc3)[C@]3(O)C[C@H](OC(=O)[C@H](O)[C@@H](NC(=O)c4ccccc4)c4ccccc4)C(C)=C1C3(C)C)[C@]1(OC(C)=O)CO[C@@H]1C[C@@H]2O [Paclitaxel, reference compound] | 1500 nM | > 100000 nM | did not induce MESSA-DX5 cells death
17% | 3% | 13% | 61% | 97% | 100% | 0% | 22% | 70% | 99% | O=C1c2ccccc2C(=O)c2nc(CS(=O)(=O)c3cccs3)c(CS(=O)(=O)c3cccs3)nc21 [PCR7997] | – | – | –
– | – | 0% | 22% | 100% | 100% | 8% | 54% | 98% | 98% | O=C1c2ccccc2C(=O)c2nc(C=C3CCCC3)c(C=C3CCCC3)nc21 [PCR8153] | – | – | –
– | – | 10% | 70% | 100% | 100% | 25% | 51% | 85% | 95% | Cc1cc(C)c(S(=O)(=O)Cc2nc3c(nc2CS(=O)(=O)c2c(C)cc(C)cc2C)C(=O)c2ccccc2C3=O)c(C)c1 [PCR7996] | – | – | –

— patent publication US11306063B2, “Heterocyclic naphthoquinones derivatives for use in the treatment of cancers including Cushing disease” (Commissariat a l'Energie Atomique et aux Energies …, priority 2016, dated 2022)
